According to PubChem BioAssay (NCI):
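Each compound was tested at five concentrations against cells in 96-well plates for 48 hours. TGI denotes the concentration required for complete inhibition of growth.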

Legend:
Assay in all cases: NCI-60 cell line screen, 48 h
[1] = test system: HCT-15 colon
[2] = test system: UACC-62 melanoma
[3] = test system: UO-31 renal
[4] = test system: XF 498 CNS
[5] = test system: MOLT-4 leukemia
[6] = test system: TK-10 renal
[7] = test system: SK-MEL-28 melanoma
[8] = test system: UACC-257 melanoma
[9] = test system: OVCAR-4 ovarian
[10] = test system: OVCAR-5 ovarian
[11] = test system: M19-MEL melanoma
[12] = test system: NCI-H23 lung
[13] = test system: NCI-H460 lung
[14] = test system: LXFL 529 NSCLC
[15] = test system: SF-268 CNS
[16] = test system: SR leukemia
[17] = test system: DLD-1 colon
[18] = test system: OVCAR-8 ovarian
[19] = test system: HOP-62 NSCLC
[20] = test system: COLO 205 colon
[21] = test system: NCI-H522 lung
[22] = test system: MDA-N
[23] = test system: SW-620 colon
[24] = test system: MALME-3M melanoma
[25] = test system: NCI/ADR-RES ovarian
[26] = test system: HT29 colon
[27] = test system: HOP-92 NSCLC
[28] = test system: HCT-116 colon
[29] = test system: PC-3 prostate
[30] = test system: RXF 393 renal
[31] = test system: HL-60(TB) leukemia
[32] = test system: KM12 colon
[33] = test system: HCC-2998 colon
[34] = test system: HS 578T breast
[35] = test system: M14 melanoma
[36] = test system: OVCAR-3 ovarian
[37] = test system: IGROV1 ovarian
[38] = test system: SK-MEL-5 melanoma
[39] = test system: ACHN renal
[40] = test system: U251 CNS
[41] = test system: CAKI-1 renal
[42] = test system: DMS 114 small cell lung
[43] = test system: SNB-75 CNS
[44] = test system: BT-549 breast
[45] = test system: RXF-631 renal
[46] = test system: NCI-H226 lung
[47] = test system: SF-539 CNS
[48] = test system: RPMI-8226 leukemia
[49] = test system: LOX IMVI melanoma
[50] = test system: T-47D breast
[51] = test system: DU-145 prostate
[52] = test system: 786-0 renal
[53] = test system: KM20L2 colon
[54] = test system: A549 NSCLC
[55] = test system: SK-OV-3 ovarian
[56] = test system: MCF7 breast
[57] = test system: MDA-MB-231 breast
[58] = test system: MDA-MB-435
[59] = test system: SN12C renal
[60] = test system: EKVX NSCLC
[61] = test system: SF-295 CNS
[62] = test system: SNB-78 CNS
[63] = test system: SNB-19 CNS
[64] = test system: DMS 273 small cell lung
[65] = test system: K-562 leukemia
[66] = test system: CCRF-CEM leukemia
[67] = test system: SK-MEL-2 melanoma
[68] = test system: A498 renal

CC(=O)NNc1nc(C)c(C(=O)NNC(=O)C(=O)Nc2nc3ccc([N+](=O)[O-])cc3s2)s1 gave a TGI [1] of over 100 µM, a TGI [2] of over 100 µM and a TGI [3] of over 100 µM. It also gave a TGI [4] of 75.9 µM, a TGI [5] of over 100 µM and a TGI [6] of over 100 µM. The TGI [7] was over 100 µM, the TGI [8] was over 100 µM and the TGI [9] was over 100 µM. The TGI [10] was over 100 µM, the TGI [11] was over 100 µM and the TGI [12] was over 100 µM. It also gave a TGI [13] of over 100 µM, a TGI [14] of over 100 µM and a TGI [15] of over 100 µM. The TGI [16] was over 72.2 µM, the TGI [17] was over 100 µM and the TGI [18] was over 100 µM. It also gave a TGI [19] of over 100 µM, a TGI [20] of over 100 µM and a TGI [21] of 61.4 µM. For the same compound, the TGI [22] was over 100 µM, the TGI [23] was over 100 µM and the TGI [24] was over 100 µM. It also gave a TGI [25] of over 100 µM, a TGI [26] of over 100 µM and a TGI [27] of over 100 µM. For the same compound, the TGI [28] was over 100 µM, the TGI [29] was over 100 µM and the TGI [30] was over 95.6 µM. The TGI [31] was 79.9 µM, the TGI [32] was over 100 µM and the TGI [33] was over 100 µM. The TGI [34] was over 100 µM, the TGI [35] was over 100 µM and the TGI [36] was 76.4 µM. It also gave a TGI [37] of over 83.7 µM, a TGI [38] of over 81.5 µM and a TGI [39] of over 100 µM. For the same compound, the TGI [40] was over 100 µM, the TGI [41] was over 92.6 µM and the TGI [42] was 82.5 µM. The TGI [43] was over 100 µM, the TGI [44] was over 100 µM and the TGI [45] was over 100 µM. The TGI [46] was over 100 µM, the TGI [47] was over 100 µM and the TGI [48] was over 80.5 µM. It also gave a TGI [49] of over 100 µM, a TGI [50] of 68.3 µM and a TGI [51] of over 100 µM. It also gave a TGI [52] of over 100 µM, a TGI [53] of over 100 µM and a TGI [54] of over 100 µM. The TGI [55] was over 100 µM, the TGI [56] was over 100 µM and the TGI [57] was over 100 µM. The TGI [58] was over 100 µM, the TGI [59] was over 100 µM and the TGI [60] was over 100 µM. It also gave a TGI [61] of over 100 µM, a TGI [62] of over 100 µM and a TGI [63] of over 100 µM. It also gave a TGI [64] of over 100 µM, a TGI [65] of over 70.6 µM and a TGI [66] of 56.5 µM. It also gave a TGI [67] of over 100 µM and a TGI [68] of over 70.8 µM.
